# The supplement of paper PMC10307832
# What was measured:
# Experiment in all cases: relative viability (nuclei count vs DMSO), 5 days (fraction); higher = more cells survive
# Motesanib + Linsitinib = compound: CC1(C)CNc2cc(NC(=O)c3cccnc3NCc3ccncc3)ccc21 [Motesanib] + C[C@]1(O)C[C@@H](c2nc(-c3ccc4ccc(-c5ccccc5)nc4c3)c3c(N)nccn32)C1 [Linsitinib] (partner 1 µM)
# In short: (§1)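 The day after seeding in 1536-well plates, lung cancer cell lines were treated by pin tool with a single drug, or with a fixed anchor-drug dose together with five library-drug doses (not always all listed) in √10 steps. After 5 days, a combined fix-and-stain solution (final 0.05% Triton X-100, 1% formaldehyde, 1 ug/ml Hoechst) was added. Nuclei counted on 4× images gave relative viability as treated counts over vehicle counts, reported as the median of duplicate plates.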
# Motesanib + Foretinib = compound: CC1(C)CNc2cc(NC(=O)c3cccnc3NCc3ccncc3)ccc21 [Motesanib] + COc1cc2c(Oc3ccc(NC(=O)C4(C(=O)Nc5ccc(F)cc5)CC4)cc3F)ccnc2cc1OCCCN1CCOCC1 [Foretinib] (partner 0.25 µM)
# In short: as §1
# [1] = compound: C[C@@]1(C(=O)Nc2ccc(F)nc2)CCCN1c1nc(Nc2cc(C3CC3)n[nH]2)c2cccn2n1 + CS(=O)(=O)N1CCN(Cc2cc3nc(-c4cccc5[nH]ncc45)nc(N4CCOCC4)c3s2)CC1 [Pictilisib] (partner 1 µM)
# In short: as §1
# Motesanib + Crizotinib = compound: CC1(C)CNc2cc(NC(=O)c3cccnc3NCc3ccncc3)ccc21 [Motesanib] + C[C@@H](Oc1cc(-c2cnn(C3CCNCC3)c2)cnc1N)c1c(Cl)ccc(F)c1Cl [Crizotinib] (partner 1 µM)
# In short: as §1
Cell Line,relative viability (Motesanib + Linsitinib; first compound 0.01 µM),relative viability (Motesanib + Linsitinib; first compound 0.03162 µM),relative viability (Motesanib + Linsitinib; first compound 0.1 µM),relative viability (Motesanib + Linsitinib; first compound 0.3162 µM),relative viability (Motesanib + Linsitinib; first compound 1 µM),relative viability (Motesanib + Foretinib; first compound 0.01 µM),relative viability (Motesanib + Foretinib; first compound 0.03162 µM),relative viability (Motesanib + Foretinib; first compound 0.1 µM),relative viability (Motesanib + Foretinib; first compound 0.3162 µM),relative viability (Motesanib + Foretinib; first compound 1 µM),relative viability ([1]; first compound 0.04 µM),relative viability ([1]; first compound 0.1265 µM),relative viability ([1]; first compound 0.4 µM),relative viability ([1]; first compound 1.265 µM),relative viability (Motesanib + Crizotinib; first compound 0.01 µM),relative viability (Motesanib + Crizotinib; first compound 0.03162 µM),relative viability (Motesanib + Crizotinib; first compound 0.1 µM),relative viability (Motesanib + Crizotinib; first compound 0.3162 µM),relative viability (Motesanib + Crizotinib; first compound 1 µM)
NCI-H322M,1.03,0.91,0.913,0.92,0.98,1.09,0.998,0.979,0.946,1.06,0.479,0.376,0.371,0.507,1.06,0.835,1.04,0.974,0.946
NCI-H838,1.05,1.09,1.06,1.08,1.07,1.17,1.06,1.07,1.14,1.09,0.514,0.379,0.263,0.365,0.908,0.856,0.903,0.899,0.878
HARA,0.967,0.909,1.02,1.09,1.14,0.94,0.801,0.906,0.915,0.881,0.366,0.208,0.215,0.294,1.1,0.993,1.06,1.1,1.04
NCI-H2087,0.885,1.03,1.16,0.998,1.1,1.02,0.937,1.2,1.23,1.11,0.896,0.783,0.792,0.7,0.686,0.983,0.951,0.878,0.93
NCI-H1792,0.569,0.492,0.625,0.561,0.492,–,–,–,–,–,0.257,0.266,0.201,0.318,0.931,0.92,1.01,1.05,0.968
ChaGo-K-1,–,–,–,–,–,0.933,0.894,0.861,1.1,1.01,0.643,0.662,0.849,0.371,–,1.16,1.1,1.18,1.15
HCC-44,0.7,0.653,0.694,0.696,0.6,–,–,–,–,–,0.532,0.386,0.841,0.328,0.883,0.8,0.801,0.765,0.901
NCI-H1793,0.877,0.802,0.796,0.793,0.76,0.815,0.566,0.721,0.591,0.805,0.338,0.284,0.323,0.293,–,–,–,–,–
NCI-H1395,0.992,1.03,1,1.11,1.35,0.973,0.809,1.05,1.02,0.942,0.664,0.436,0.761,0.788,–,–,–,–,–
SW 900,–,–,–,–,–,0.824,0.9,1.36,0.887,0.874,–,–,–,–,–,–,–,–,–
